Data as given in ChEMBL document CHEMBL5303304, “EUbOPEN Chemogenomics Library - IncuCyte” (2023).
Numbered stars: 1 amine (or outer) side, 2 acyl side, 3 side chain; on linkers, the order of the positions; unused ones are H or OH. Bridge positions count the residues as written; N and C are the ends. Square brackets hold non-standard residues; d marks the D form. Peptide text beside a SMILES is read from it. I, II: the chains in the order shown. Hexamethylenediamine = C(CCCN[*:2])CCN[*:1]; Dip = N[C@H](C(=O)O)C(c1ccccc1)c1ccccc1; Chg = N[C@H](C(=O)O)C1CCCCC1; NMeA = CN[C@@H](C)C(=O)O

What was measured:
Type in all cases: toxicity, cell-based
[1] = system: HEK-293T; assay: Incucyte cell viability with HEK293T; details: human, 10 µM, compound concentration 10 uM
[2] = system: Fibroblast; assay: Incucyte cell viability with human fibroblast; details: 10 µM, compound concentration 10 uM
[3] = system: U2OS; assay: Incucyte cell viability with U2OS; details: human, 10 µM, compound concentration 10 uM
Also: unitless GR value; below 1 slowed growth and below 0 cell loss.

Row | Compound | Growth Rate ([1]; 12 h, replicate number 2) | Growth Rate ([1]; 18 h, replicate number 2) | Growth Rate ([1]; 24 h, replicate number 2) | Growth Rate ([2]; 12 h, replicate number 1) | Growth Rate ([2]; 12 h, replicate number 2) | Growth Rate ([2]; 18 h, replicate number 1) | Growth Rate ([2]; 18 h, replicate number 2) | Growth Rate ([2]; 24 h, replicate number 1) | Growth Rate ([2]; 24 h, replicate number 2) | Growth Rate ([3]; 0 h, replicate number 2) | Growth Rate ([3]; 6 h, replicate number 1) | Growth Rate ([3]; 6 h, replicate number 2) | Growth Rate ([3]; 18 h, replicate number 1) | Growth Rate ([3]; 18 h, replicate number 2) | Growth Rate ([3]; 24 h, replicate number 1) | Growth Rate ([3]; 24 h, replicate number 2) | Growth Rate ([1]; 24 h, replicate number 1) | Growth Rate ([2]; 0 h, replicate number 2) | Growth Rate ([2]; 6 h, replicate number 2) | Growth Rate ([1]; 6 h, replicate number 2) | further results
1 | COc1cc(CN(CCN)C(=O)N[C@@H](C)c2ccccc2)ccc1OCc1ccccc1.Cl | 0.77 | 0.81 | 0.74 | 0.94 | 0.41 | 0.87 | 0.71 | 0.72 | 0.83 | -0.26 | 0.64 | 0.82 | 0.98 | 0.92 | 0.79 | 1 |  |  |  |  | Growth Rate ([2]; 0 h, replicate number 1): -1; Growth Rate ([2]; 6 h, replicate number 1): 0.29; Growth Rate ([3]; 0 h, replicate number 1): -0.64; Growth Rate ([3]; 12 h, replicate number 1): 0.69
2 | COc1ccc(S(=O)(=O)N2CCOCC2)cc1Nc1ccc2c(n1)N(C1CCOCC1)[C@H](C)C(=O)N2C |  |  | 0.81 |  | 0.55 |  | 0.25 |  | 0.36 |  |  |  |  |  | 0.7 | 0.96 | 0.7 | -0.13 | -0.44 |  | 
3 | CN[C@@H](C)C(=O)N[C@H](C(=O)N1CCC[C@H]1C(=O)N[C@H](C(=O)NCCCCCCNC(=O)[C@@H](NC(=O)[C@@H]1CCCN1C(=O)[C@@H](NC(=O)[C@H](C)NC)C1CCCCC1)C(c1ccccc1)c1ccccc1)C(c1ccccc1)c1ccccc1)C1CCCCC1 (I: H-[NMeA][Chg]P[Dip] / II: H-[NMeA][Chg]P[Dip]; linker I:C-II:C via Hexamethylenediamine) | -0.4 | -0.31 | -0.25 | 0.82 | 0.74 | 0.47 | 0.49 | 0.5 | 0.33 | -0.47 | -0.4 | -0.46 | -0.25 | -0.21 | -0.22 | -0.21 | -0.23 | -0.82 |  | -0.41 | Growth Rate ([1]; 6 h, replicate number 1): -0.33; Growth Rate ([1]; 12 h, replicate number 1): -0.42; Growth Rate ([1]; 18 h, replicate number 1): -0.3; Growth Rate ([3]; 12 h, replicate number 1): -0.41; Growth Rate ([3]; 12 h, replicate number 2): -0.63
4 | C[C@H](C[C@H](N)C(=O)O)C(=O)O [2S,4R-4-METHYLGLUTAMATE] |  |  |  |  | 0.66 |  |  | 0.42 | 0.97 |  |  | 0.65 |  | 0.82 |  | 0.94 |  | -0.67 | 0.92 |  | Growth Rate ([1]; 0 h, replicate number 2): 0.9; Growth Rate ([3]; 12 h, replicate number 2): 0.89
5 | N#CN1CC[C@H](C(=O)Nc2nc3c(s2)CN(C(=O)CN=[N+]=[N-])CC3)C1 [8RK64] | 0.81 | 0.93 | 0.94 | 0.41 |  |  |  |  |  |  |  |  |  | 0.94 |  | 0.89 |  | 0.48 |  | 0.66 | Growth Rate ([1]; 12 h, replicate number 1): 0.99
6 | Cc1onc(O)c1CC(N)C(=O)O [(R,S)-AMPA] | 0.69 | 0.64 |  | -1 | 0.59 |  |  |  |  | -0.98 |  | 0.78 |  | 0.94 |  | 0.94 | 0.74 |  | -0.99 | 0.09 | Growth Rate ([1]; 0 h, replicate number 2): 0.65; Growth Rate ([1]; 6 h, replicate number 1): 0.47; Growth Rate ([1]; 12 h, replicate number 1): 0.21; Growth Rate ([1]; 18 h, replicate number 1): 0.78; Growth Rate ([2]; 0 h, replicate number 1): -0.2; Growth Rate ([3]; 0 h, replicate number 1): -0.22; Growth Rate ([3]; 12 h, replicate number 2): 0.82
7 | CCC(=N\O)/C(C)=C/c1ccc(F)cc1 [A-079] | -0.09 | 0.33 | 0.57 |  |  | 0.86 |  |  |  | -0.97 | 0.53 | 0.16 | 1 | 0.78 |  | 0.79 |  | -0.47 |  | -0.79 | Growth Rate ([1]; 6 h, replicate number 1): 0.09; Growth Rate ([2]; 6 h, replicate number 1): 0.02; Growth Rate ([3]; 12 h, replicate number 2): 0.89
8 | O=C(Cc1ccccc1)Nc1nnc(N2CC[C@@H]3[C@H]2CN3c2cccnn2)s1 [A-426] |  |  |  | 0.76 | 0.86 | 0.8 | 0.69 | 0.73 |  |  | 0.79 |  | 0.77 |  | 0.84 |  | 0.85 |  | 0.16 |  | Growth Rate ([1]; 6 h, replicate number 1): 0.31; Growth Rate ([1]; 12 h, replicate number 1): 0.39; Growth Rate ([1]; 18 h, replicate number 1): 0.67; Growth Rate ([2]; 6 h, replicate number 1): 0.66; Growth Rate ([3]; 0 h, replicate number 1): -0.69; Growth Rate ([3]; 12 h, replicate number 1): 0.69
9 | O=C(Cc1ccccc1)Nc1nnc(N2C[C@H]3C[C@@H]2CN3c2cccnn2)s1 [A-446] | 0.97 | 0.86 | 0.94 | 0.45 | 0.18 | 0.27 | 0.19 | 0.33 | 0.04 | 0.56 | 0.82 | 0.43 | 0.54 | 0.8 | 0.87 | 0.77 | 0.93 | 0.67 | -0.04 | 0.68 | Growth Rate ([1]; 0 h, replicate number 1): 0.58; Growth Rate ([1]; 0 h, replicate number 2): -0.11; Growth Rate ([1]; 12 h, replicate number 1): 0.83; Growth Rate ([2]; 6 h, replicate number 1): 0.15; Growth Rate ([3]; 0 h, replicate number 1): 0.34; Growth Rate ([3]; 12 h, replicate number 1): 0.68; Growth Rate ([3]; 12 h, replicate number 2): 0.59
